Source: US20250114374A1, “BCL-2 INHIBITORS” (Newave Pharmaceutical Inc., priority 2021, published 2025)
pIC50: −log10 of the molar value.

tested on: RS4; 11 with G101V mutation; assay: In vitro anti-proliferation assay (ATPlite luminescence) in BCL-2-dependent ALL cell line RS4;11 with G101V mutation; type: cell-based; details: Homo sapiens, RS4-11, 72 h; read-out: RS411-G101V IC50
Procedure, shortened: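 IC50 came from luminescent ATP quantification (ATPlite) following cell lysis. Compound dose ranges were applied for roughly 72 h to about 1×10^4 G101V-mutant RS4;11 cells per well, in 10% FBS medium.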

pIC50 | Structure (SMILES)
6.54 | CC(C)Oc1ccccc1[C@@H]1CN(S(=O)(=O)c2ccc(F)c(F)c2)CCN1C1CC2(CCN(c3ccc(C(=O)NS(=O)(=O)c4cc5c(c([N+](=O)[O-])c4)N[C@H](C4CCOCC4)CO5)c(N4c5cc6cc[nH]c6nc5O[C@H]5COCC[C@@H]54)c3)CC2)C1 [Example 245, 4-(2-((R)-4-((3,4-difluorophenyl)sulfonyl)-2-(2-isopropoxyphenyl)piperazin-1-yl)-7-azaspiro[3.5]nonan-7-yl)-N-(((R)-5-nitro-3-(tetrahydro-2H-pyran-4-yl)-3,4-dihydro-2H-benzo[b][1,4]oxazin-7-yl)sulfonyl)-2-((5aS,9aR)-6,7,9,9a-tetrahydro-1H-pyrano[3,4-b]pyrrolo[3′,2′:5,6]pyrido[3,2-e][1,4]oxazin-5(5aH)-yl)benzamide]
8.73 | Cc1ccccc1[C@@H]1CN(Cc2cnc(N3CCOC[C@@H]3C)c3c2C(C)(C)CCO3)CCN1C1CC2(CCN(c3ccc(C(=O)NS(=O)(=O)c4cc5c(c([N+](=O)[O-])c4)N[C@H](C4CCOCC4)CO5)c(N4c5cc6cc[nH]c6nc5O[C@H]5COCC[C@@H]54)c3)CC2)C1 [Example 252, 4-(2-((R)-4-((4,4-dimethyl-8-((S)-3-methylmorpholino)-3,4-dihydro-2H-pyrano[2,3-c]pyridin-5-yl)methyl)-2-(o-tolyl)piperazin-1-yl)-7-azaspiro[3.5]nonan-7-yl)-N-(((R)-5-nitro-3-(tetrahydro-2H-pyran-4-yl)-3,4-dihydro-2H-benzo[b][1,4]oxazin-7-yl)sulfonyl)-2-((5aS,9aR)-6,7,9,9a-tetrahydro-1H-pyrano[3,4-b]pyrrolo[3′,2′:5,6]pyrido[3,2-e][1,4]oxazin-5(5aH)-yl)benzamide]

same assay, conditions: cellular anti-proliferative IC50, about 72 hours, medium with 10% FBS, ATPlite; read-out: RS411-G101V IC50

Structure (SMILES) | pIC50
CC(C)Oc1ccccc1[C@@H]1CN(C2CCC(C)(O)CC2)CCN1C1CC2(CCN(c3ccc(C(=O)NS(=O)(=O)c4cc5c(c([N+](=O)[O-])c4)N[C@H](C4CCOCC4)CO5)c(N4c5cc6cc[nH]c6nc5O[C@H]5COCC[C@@H]54)c3)CC2)C1 (stereo partly drawn) [Example 207, 4-(2-((R)-4-((1r,4R)-4-hydroxy-4-methylcyclohexyl)-2-(2-isopropoxyphenyl)piperazin-1-yl)-7-azaspiro[3.5]nonan-7-yl)-N-(((R)-5-nitro-3-(tetrahydro-2H-pyran-4-yl)-3,4-dihydro-2H-benzo[b][1,4]oxazin-7-yl)sulfonyl)-2-((5aS,9aR)-6,7,9,9a-tetrahydro-1H-pyrano[3,4-b]pyrrolo[3′,2′:5,6]pyrido[3,2-e][1,4]oxazin-5(5aH)-yl)benzamide] | 7.57
CC(C)Oc1ccccc1[C@@H]1CN(Cc2ccc(F)c(F)c2)CCN1C1CC2(CCN(c3nc(N4c5cc6cc[nH]c6nc5O[C@H]5COCC[C@@H]54)c(C(=O)NS(=O)(=O)c4cc5c(c([N+](=O)[O-])c4)N[C@H](C4CCOCC4)CO5)cc3F)CC2)C1 [Example 235, 6-{2-[(2R)-4-[(3,4-difluorophenyl)methyl]-2-(2-isopropoxyphenyl)piperazin-1-yl]-7-azaspiro[3.5]nonan-7-yl}-2-[(3R,8S)-2,5-dioxa-9,15,17-triazatetracyclo[8.7.0.0^{3,8}.0^{12,16}]heptadeca-1(10),11,13,16-tetraen-9-yl]-5-fluoro-N-[(3R)-5-nitro-3-(oxan-4-yl)-3,4-dihydro-2H-1,4-benzoxazin-7-ylsulfonyl]pyridine-3-carboxamide] | 5.64
Cc1ccccc1[C@@H]1CN(C2CCC(C)(O)CC2)CCN1C1CC2(CCN(c3ccc(C(=O)NS(=O)(=O)c4ccc(NCC5CCC(C)(O)CC5)c([N+](=O)[O-])c4)c(N4c5cc6cc[nH]c6nc5O[C@H]5COCC[C@@H]54)c3)CC2)C1 (stereo partly drawn) [Example 112, 2-[(3R,8S)-2,5-dioxa-9,15,17-triazatetracyclo[8.7.0.0^{3,8}.0^{12,16}]heptadeca-1(10),11,13,16-tetraen-9-yl]-4-{2-[(2R)-2-(2-methylphenyl)-4-[(1r,4r)-4-hydroxy-4-methylcyclohexyl]piperazin-1-yl]-7-azaspiro[3.5]nonan-7-yl}-N-[3-nitro-4-({[(1r,4r)-4-hydroxy-4-methylcyclohexyl]methyl}amino)benzenesulfonyl]benzamide] | 7.96
COc1cc(CN2CCN(C3CC4(CCN(c5ccc(C(=O)NS(=O)(=O)c6ccc(NCC7CCC(C)(O)CC7)c([N+](=O)[O-])c6)c(N6c7cc8cc[nH]c8nc7O[C@H]7COCC[C@@H]76)c5)CC4)C3)[C@@H](c3ccccc3OC(C)C)C2)cnc1OC (stereo partly drawn) [Example 104, 4-{2-[(2S)-4-[(5,6-dimethoxypyridin-3-yl)methyl]-2-(2-isopropoxyphenyl)piperazin-1-yl]-7-azaspiro[3.5]nonan-7-yl}-2-[(3R,8S)-2,5-dioxa-9,15,17-triazatetracyclo[8.7.0.0^{3,8}.0^{12,16}]heptadeca-1(10),11,13,16-tetraen-9-yl]-N-[3-nitro-4-({[(1r,4r)-4-hydroxy-4-methylcyclohexyl]methyl}amino)benzenesulfonyl]benzamide] | 8.16
COc1c(N2CCOCC2)ncc2c1COC[C@H]2N1CCN(C2CC3(CCN(c4ccc(C(=O)NS(=O)(=O)c5cc6c(c([N+](=O)[O-])c5)N[C@H](C5CCOCC5)CO6)c(N5c6cc7cc[nH]c7nc6O[C@H]6COCC[C@@H]65)c4)CC3)C2)[C@H](c2ccccc2OC(C)C)C1 [Example 250, 2-[(3R,8S)-2,5-dioxa-9,15,17-triazatetracyclo[8.7.0.0^{3,8}.0^{12,16}]heptadeca-1(10),11,13,16-tetraen-9-yl]-4-{2-[(2R)-2-(2-isopropoxyphenyl)-4-[(4S)-8-methoxy-7-(morpholin-4-yl)-1H,3H,4H-pyrano[4,3-c]pyridin-4-yl]piperazin-1-yl]-7-azaspiro[3.5]nonan-7-yl}-N-[(3R)-5-nitro-3-(oxan-4-yl)-3,4-dihydro-2H-1,4-benzoxazin-7-ylsulfonyl]benzamide] | 8.00
COc1cc(CN2CCN(C3CC4(CCN(c5ccc(C(=O)NS(=O)(=O)c6cc7c(c([N+](=O)[O-])c6)N[C@H](C6CCOCC6)CO7)c(N6c7cc8cc[nH]c8nc7O[C@H]7COCC[C@@H]76)c5)CC4)C3)[C@H](c3ccccc3C)C2)cnc1N1CCOC[C@@H]1C [Example 187, 2-[(3R,8S)-2,5-dioxa-9,15,17-triazatetracyclo[8.7.0.0^{3,8}.0^{12,16}]heptadeca-1(10),11,13,16-tetraen-9-yl]-4-{2-[(2R)-4-({5-methoxy-6-[(3S)-3-methylmorpholin-4-yl]pyridin-3-yl}methyl)-2-(2-methylphenyl)piperazin-1-yl]-7-azaspiro[3.5]nonan-7-yl}-N-[(3R)-5-nitro-3-(oxan-4-yl)-3,4-dihydro-2H-1,4-benzoxazin-7-ylsulfonyl]benzamide] | 8.69
COc1cc(CN2CCN(C3CC4(CCN(c5ccc(C(=O)NS(=O)(=O)c6ccc(NCC7CCC(C)(O)CC7)c([N+](=O)[O-])c6)c(N6c7cc8cc[nH]c8nc7O[C@H]7COCC[C@@H]76)c5)CC4)C3)[C@H](c3ccccc3C)C2)cnc1OC (stereo partly drawn) [Example 118, 4-{2-[(2R)-4-[(5,6-dimethoxypyridin-3-yl)methyl]-2-(2-methylphenyl)piperazin-1-yl]-7-azaspiro[3.5]nonan-7-yl}-2-[(3R,8S)-2,5-dioxa-9,15,17-triazatetracyclo[8.7.0.0^{3,8}.0^{12,16}]heptadeca-1(10),11,13,16-tetraen-9-yl]-N-[3-nitro-4-({[(1r,4r)-4-hydroxy-4-methylcyclohexyl]methyl}amino)benzenesulfonyl]benzamide] | 8.36
Cc1cc2c(CN3CCN(C4CC5(CCN(c6ccc(C(=O)NS(=O)(=O)c7cc8c(c([N+](=O)[O-])c7)N[C@H](C7CCOCC7)CO8)c(N7c8cc9cc[nH]c9nc8O[C@H]8COCC[C@@H]87)c6)CC5)C4)[C@H](c4ccccc4C)C3)cnc(N3CCOC[C@@H]3C)c2o1 [Example 191, 2-[(3R,8S)-2,5-dioxa-9,15,17-triazatetracyclo[8.7.0.0^{3,8}.0^{12,16}]heptadeca-1(10),11,13,16-tetraen-9-yl]-4-{2-[(2R)-4-({2-methyl-7-[(3S)-3-methylmorpholin-4-yl]furo[2,3-c]pyridin-4-yl}methyl)-2-(2-methylphenyl)piperazin-1-yl]-7-azaspiro[3.5]nonan-7-yl}-N-[(3R)-5-nitro-3-(oxan-4-yl)-3,4-dihydro-2H-1,4-benzoxazin-7-ylsulfonyl]benzamide] | 7.85
Cc1ccccc1[C@@H]1CN(CC2CCOCC2)CCN1C1CC2(CCN(c3ccc(C(=O)NS(=O)(=O)c4cc5c(c([N+](=O)[O-])c4)N[C@H](C4CCOCC4)CO5)c(N4c5cc6cc[nH]c6nc5O[C@H]5COCC[C@@H]54)c3)CC2)C1 [Example 184, 2-[(3R,8S)-2,5-dioxa-9,15,17-triazatetracyclo[8.7.0.0^{3,8}.0^{12,16}]heptadeca-1(10),11,13,16-tetraen-9-yl]-4-{2-[(2R)-2-(2-methylphenyl)-4-(oxan-4-ylmethyl)piperazin-1-yl]-7-azaspiro[3.5]nonan-7-yl}-N-[(3R)-5-nitro-3-(oxan-4-yl)-3,4-dihydro-2H-1,4-benzoxazin-7-ylsulfonyl]benzamide] | 7.39
CC(C)Oc1ccccc1[C@@H]1CN([C@H]2CCOc3c2ccc(F)c3F)CCN1C1CC2(CCN(c3ccc(C(=O)NS(=O)(=O)c4cc5c(c([N+](=O)[O-])c4)N[C@H](C4CCOCC4)CO5)c(N4c5cc6cc[nH]c6nc5O[C@H]5COCC[C@@H]54)c3)CC2)C1 [Example 213, 4-{2-[(2R)-4-[(4S)-7,8-difluoro-3,4-dihydro-2H-1-benzopyran-4-yl]-2-(2-isopropoxyphenyl)piperazin-1-yl]-7-azaspiro[3.5]nonan-7-yl}-2-[(3R,8S)-2,5-dioxa-9,15,17-triazatetracyclo[8.7.0.0^{3,8}.0^{12,16}]heptadeca-1(10),11,13,16-tetraen-9-yl]-N-[(3R)-5-nitro-3-(oxan-4-yl)-3,4-dihydro-2H-1,4-benzoxazin-7-ylsulfonyl]benzamide] | 7.62
